The subject of this test is A498 complex spheroid viability. Nature of the test: Anticancer human tumor A498 cell line growth inhibition.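 For all read-outs here: spheroids exposed to agents for seven days before readout.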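 For viability, T/C: 100% = DMSO vehicle-treated spheroids.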 Conditions: for viability, T/C: stronger effect = lower value. The procedure, abridged: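 Multicellular complex spheroids of tumor cells with human endothelial cells (HUVEC) and mesenchymal stem cells; the LSD1 inhibitor iadademstat was combined with standard-of-care or investigational agents. Top concentration at or near clinical Cmax, half-log dilutions; final DMSO ≤0.25%.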

Where [1] appears, read: curve of first compound, second compound 0.1 µM.
[2] abbreviates: curve of first compound, second compound 0.316 µM.
[3] abbreviates: curve of first compound, second compound 1 µM.
Where [4] appears, read: curve of first compound, second compound 3.16 µM.
The mark [5] stands for this setting: curve of first compound, second compound 10 µM.
[6] abbreviates: second compound 0.1 µM, first compound 0.0316 µM.
Setting [7] is: second compound 0.1 µM, first compound 0.1 µM.
Setting [8] is: second compound 0.1 µM, first compound 0.316 µM.
The mark [9] stands for this setting: second compound 0.1 µM, first compound 1 µM.
Where [10] appears, read: second compound 0.1 µM, first compound 3.16 µM.
Setting [11] is: second compound 0.1 µM, first compound 10 µM.
Where [12] appears, read: second compound 0.316 µM, first compound 0.0316 µM.
Setting [13] is: second compound 0.316 µM, first compound 0.1 µM.
The mark [14] stands for this setting: second compound 0.316 µM, first compound 0.316 µM.
Setting [15] is: second compound 0.316 µM, first compound 1 µM.
Setting [16] is: second compound 0.316 µM, first compound 3.16 µM.
Setting [17] is: second compound 0.316 µM, first compound 10 µM.
Setting [18] is: second compound 1 µM, first compound 0.0316 µM.
Where [19] appears, read: second compound 1 µM, first compound 0.1 µM.
Setting [20] is: second compound 1 µM, first compound 0.316 µM.
The mark [21] stands for this setting: second compound 1 µM, first compound 1 µM.
Setting [22] is: second compound 1 µM, first compound 3.16 µM.
The mark [23] stands for this setting: second compound 1 µM, first compound 10 µM.
Where [24] appears, read: second compound 3.16 µM, first compound 0.0316 µM.
Setting [25] is: second compound 3.16 µM, first compound 0.1 µM.
[26] abbreviates: second compound 3.16 µM, first compound 0.316 µM.
The mark [27] stands for this setting: second compound 3.16 µM, first compound 1 µM.
Setting [28] is: second compound 3.16 µM, first compound 3.16 µM.
The mark [29] stands for this setting: second compound 3.16 µM, first compound 10 µM.
Setting [30] is: second compound 10 µM, first compound 0.0316 µM.
Setting [31] is: second compound 10 µM, first compound 0.1 µM.
Setting [32] is: second compound 10 µM, first compound 0.316 µM.
[33] abbreviates: second compound 10 µM, first compound 1 µM.
[34] abbreviates: second compound 10 µM, first compound 3.16 µM.
[35] abbreviates: second compound 10 µM, first compound 10 µM.
The mark [36] stands for this setting: second compound 0.1 µM, first compound 0.00316 µM.
Where [37] appears, read: second compound 0.1 µM, first compound 0.01 µM.
[38] abbreviates: second compound 0.316 µM, first compound 0.00316 µM.
The mark [39] stands for this setting: second compound 0.316 µM, first compound 0.01 µM.
The mark [40] stands for this setting: second compound 1 µM, first compound 0.00316 µM.
Where [41] appears, read: second compound 1 µM, first compound 0.01 µM.
Setting [42] is: second compound 3.16 µM, first compound 0.00316 µM.
The mark [43] stands for this setting: second compound 3.16 µM, first compound 0.01 µM.
The mark [44] stands for this setting: second compound 10 µM, first compound 0.00316 µM.
Where [45] appears, read: second compound 10 µM, first compound 0.01 µM.

Molecules are shown by their SMILES. “And” between values parts separate entries of the source, which are not always exact repeats. Equal entries are not always repeated.

For orientation: IC50 means the concentration needed to halve the response being measured. What is called viability, T/C is the result in the treated group divided by that in the control group, in per cent. With `CC1(C)CCC(CN2CCN(c3ccc(C(=O)NS(=O)(=O)c4ccc(NCC5CCOCC5)c([N+](=O)[O-])c4)c(Oc4cnc5[nH]ccc5c4)c3)CC2)=C(c2ccc(Cl)cc2)C1` + NC1CC1c1ccc(-c2cccc(O)c2)cc1, the concentration for half-maximal inhibition (IC50) is, setting by setting: under setting [1], 4510 nM; under setting [2], 4160 nM; under setting [3], 4080 nM; under setting [4], 3700 nM; under setting [5], 3840 nM. The viability, T/C under setting [6] was 109%; the viability, T/C under setting [7] is 106%; the viability, T/C under setting [8] was 102%; the viability, T/C under setting [9] was 93.1%; the viability, T/C under setting [10] is 69.6%; the viability, T/C under setting [11] is 7.58%. Also, the viability, T/C under setting [12] was 108%; the viability, T/C under setting [13] was 112%; the viability, T/C under setting [14] was 96.6%; the viability, T/C under setting [15] is 88.2%; the viability, T/C under setting [16] is 66.7%; the viability, T/C under setting [17] was 5.66%. For the same compound, the viability, T/C is 103% under setting [18]; 99.6% under setting [19]; 98.9% under setting [20]; 84.3% under setting [21]; 64.1% under setting [22]; 6.2% under setting [23]. In addition, the viability, T/C under setting [24] was 100%; the viability, T/C under setting [25] is 91.4%; the viability, T/C under setting [26] was 98.9%; the viability, T/C under setting [27] was 86.1%; the viability, T/C under setting [28] was 57.2%; the viability, T/C under setting [29] is 5.72%. For the same compound, the viability, T/C is, setting by setting: under setting [30], 91.9%; under setting [31], 91.6%; under setting [32], 86.6%; under setting [33], 77.8%; under setting [34], 59.9%; under setting [35], 7.06%.
Take `CC(C)CC(NC(=O)C(Cc1ccccc1)NC(=O)c1cnccn1)B(O)O` (configuration not stated): the viability, T/C (compound 0.000316 µM) is 103%; the viability, T/C (compound 0.001 µM) is 59.9% and 22.5%; the viability, T/C (compound 0.00316 µM) is 3.38% and 2.52%; the viability, T/C (compound 0.01 µM) was 0.64% and 0.86%; the viability, T/C (compound 0.0316 µM) was 0.57% and 0.5%; the viability, T/C (compound 0.1 µM) was 0.31% and 0.36%. Also, the IC50 (curve of compound) was 1.22 nM and 0.674 nM.
As to `NC1CC1c1ccc(-c2cccc(O)c2)cc1` (configuration not stated), the viability, T/C runs as follows: (compound 0.316 µM) 104% [middle of 25 runs]; (compound 10 µM) 94.1% [middle of 25 runs]. The 50% inhibitory concentration (IC50) (compound alone, run of 12/07/2021) was > 10000 nM.
Take `CC1COCCN1c1cc(-c2ccnn2C)c2ccnc(-c3ccn[nH]3)c2n1` (configuration not stated) + NC1CCC(NC2CC2c2ccccc2)CC1: the IC50 by setting is: under setting [1], 21.9 nM; under setting [2], 24.7 nM; under setting [3], 24.5 nM; under setting [4], 22.8 nM; under setting [5], 14.1 nM. The viability, T/C under setting [36] was 83.9%; the viability, T/C under setting [37] is 76.2%; the viability, T/C under setting [6] is 37.5%; the viability, T/C under setting [7] is 16.3%; the viability, T/C under setting [8] was 14%; the viability, T/C under setting [9] was 9.97%. Besides, the viability, T/C is, setting by setting: under setting [38], 89.7%; under setting [39], 79.6%; under setting [12], 41.3%; under setting [13], 19.1%; under setting [14], 14.3%; under setting [15], 10.5%. Further, the viability, T/C was 84.8% under setting [40]; 74.4% under setting [41]; 42.8% under setting [18]; 19.3% under setting [19]; 15% under setting [20]; 9.26% under setting [21]. The viability, T/C under setting [42] was 81.5%; the viability, T/C under setting [43] was 71.2%; the viability, T/C under setting [24] was 41.4%; the viability, T/C under setting [25] is 19.4%; the viability, T/C under setting [26] is 14.8%; the viability, T/C under setting [27] was 9.59%. The viability, T/C runs as follows: under setting [44], 71.5%; under setting [45], 58.9%; under setting [30], 30.7%; under setting [31], 22.7%; under setting [32], 13.9%; under setting [33], 9.55%.
`O=C(C=Cn1cnc(-c2cc(C(F)(F)F)cc(C(F)(F)F)c2)n1)NNc1cnccn1`: the viability, T/C is 71.3% and 66.5% (compound 0.00316 µM); 42.9% and 36.6% (compound 0.01 µM); 32.5% and 31.3% (compound 0.0316 µM); 29.1% and 26.8% (compound 0.1 µM); 25.6% and 26.2% (compound 0.316 µM); 22.2% and 17.3% (compound 1 µM). For the same compound, the IC50 (curve of compound) was 7.74 nM and 6.34 nM.
Consider `COc1cc(Nc2ncc3c(n2)-c2ccc(Cl)cc2C(c2c(F)cccc2OC)=NC3)ccc1C(=O)O` + NC1CCC(NC2CC2c2ccccc2)CC1, for which the IC50 was 256 nM under setting [1]; 454 nM under setting [2]; 415 nM under setting [3]; 291 nM under setting [4]; 523 nM under setting [5]. The viability, T/C runs as follows: under setting [36], 86.1%; under setting [37], 72.4%; under setting [6], 66.2%; under setting [7], 56%; under setting [8], 47.7%; under setting [9], 43.2%. Also, the viability, T/C is 89.6% under setting [38]; 80.1% under setting [39]; 74.5% under setting [12]; 63% under setting [13]; 50.5% under setting [14]; 45.9% under setting [15]. Further, the viability, T/C reads like this: under setting [40], 80.2%; under setting [41], 78.3%; under setting [18], 73.4%; under setting [19], 55.5%; under setting [20], 57.1%; under setting [21], 40.9%. The viability, T/C under setting [42] was 83.1%; the viability, T/C under setting [43] is 70%; the viability, T/C under setting [24] is 73.1%; the viability, T/C under setting [25] is 55.1%; the viability, T/C under setting [26] was 51%; the viability, T/C under setting [27] is 39.1%. Further, the viability, T/C is, setting by setting: under setting [44], 73%; under setting [45], 64.3%; under setting [30], 72.3%; under setting [31], 61.5%; under setting [32], 56.8%; under setting [33], 42.1%.
For the compound `COc1ccc([C@@H](O)c2cc(-c3ncnc4cc(N5CCOCC5)ccc34)c(F)cc2Cl)nn1` + NC1CCC(NC2CC2c2ccccc2)CC1, the IC50 is, setting by setting: under setting [1], 113 nM; under setting [2], 154 nM; under setting [3], 128 nM; under setting [4], 130 nM; under setting [5], 126 nM. Also, the viability, T/C was 80.5% under setting [6]; 53.5% under setting [7]; 28.8% under setting [8]; 20.4% under setting [9]; 11% under setting [10]; 6.4% under setting [11]. Also, the viability, T/C under setting [12] was 79.6%; the viability, T/C under setting [13] was 58.5%; the viability, T/C under setting [14] was 35.6%; the viability, T/C under setting [15] is 23.3%; the viability, T/C under setting [16] was 12%; the viability, T/C under setting [17] was 6.71%. The viability, T/C under setting [18] was 70.6%; the viability, T/C under setting [19] was 55.2%; the viability, T/C under setting [20] was 32.8%; the viability, T/C under setting [21] was 19.6%; the viability, T/C under setting [22] is 10.3%; the viability, T/C under setting [23] was 6.44%. Moreover, the viability, T/C is 69.3% under setting [24]; 54.4% under setting [25]; 35.4% under setting [26]; 21% under setting [27]; 9.68% under setting [28]; 5.91% under setting [29]. Further, the viability, T/C was 66.8% under setting [30]; 54.1% under setting [31]; 35.2% under setting [32]; 23.5% under setting [33]; 10.1% under setting [34]; 5.83% under setting [35].

The values are drawn from PubChem BioAssay AID1918947 (Molecular Pharmacology Branch, DTP, NCI, 2023).
